Assay results reported in ChEMBL document CHEMBL4177724, “Effect of side chain hydrophobicity and cationic charge on antimicrobial activity and cytotoxicity of helical peptoids” (Bioorg Med Chem Lett, 2018).
In brackets after ≈: the same amount, converted by molar mass. Non-standard residues stand in square brackets, D forms with d. Residues, ends and D or L forms follow the SMILES beside them. Nspe = C[C@H](NCC(=O)O)c1ccccc1; Nlys = NCCCCNCC(=O)O

Experiments:
[1] = Induction of hemolysis in Sprague-Dawley rat erythrocytes at 200 uM incubated at 37 degC for 60 mins by spectrophotometry; assay type: cell-based, Erythrocyte; details: read-out: Activity
[2] = (§1) Induction of hemolysis in Sprague-Dawley rat erythrocytes incubated at 37 degC for 60 mins by spectrophotometry; assay type: cell-based, Erythrocyte; details: Sprague-Dawley, erythrocytes, read-out: HD50
Erythrocyte = assay: as §1; assay type: cell-based; details: erythrocyte, 1 h
[3] = Cytotoxicity against human Jurkat cells assessed as reduction in cell viability incubated for 24 hrs by MTS assay; assay type: cell-based; details: read-out: LC50
Bacillus subtilis = assay: Antibacterial activity against Bacillus subtilis then incubated at 37 degC for 24 hrs by broth dilution assay; assay type: functional
Escherichia coli = assay: Antibacterial activity against Escherichia coli then incubated at 37 degC for 24 hrs by broth dilution assay; assay type: functional
[4] = Cytotoxicity against human MRC5 cells assessed as reduction in cell viability incubated for 24 hrs by MTS assay; assay type: cell-based; details: read-out: LC50
[5] = Cytotoxicity against human LNCAP cells assessed as reduction in cell viability incubated for 24 hrs by MTS assay; assay type: cell-based; details: read-out: LC50

SMILES | hemolysis at 1 h, 200 µM [1] [%] | HC50 at 1 h [2] [µM] | HD10 (Erythrocyte) [µM] | CC50 at 24 h [3] [µM] | MIC (Bacillus subtilis) [µM] | MIC (Escherichia coli) [µM] | CC50 at 24 h [4] [µM] | CC50 at 24 h [5] [µM]
C[C@@H](c1ccccc1)N(CC(=O)N(CCCCN)CC(=O)N(CC(=O)N(CC(=O)N(CCCCN)CC(=O)N(CC(=O)N(CC(=O)N(CCCCN)CC(N)=O)[C@@H](C)c1ccccc1)[C@@H](C)c1ccccc1)[C@@H](C)c1ccccc1)[C@@H](C)c1ccccc1)C(=O)CN(C(=O)CNCCCCN)[C@@H](C)c1ccccc1 (H-[Nlys][Nspe][Nspe][Nlys][Nspe][Nspe][Nlys][Nspe][Nspe][Nlys]-NH2) | 9.8 | > 200 | > 200 | 28.9 | 0.8 (≈ 1.2 µg/mL) | 1.6 (≈ 2.4 µg/mL) | 80.5 | 
C[C@@H](c1ccccc1)N(CC(=O)N(CCCCN)CC(=O)N(CC(=O)N(CC(=O)N(CCCCN)CC(=O)N(CC(=O)N(CC(=O)N(CCCCN)CC(=O)N(CC(=O)N(CC(=O)N(CCCCN)CC(N)=O)[C@@H](C)c1ccccc1)[C@@H](C)c1ccccc1)[C@@H](C)c1ccccc1)[C@@H](C)c1ccccc1)[C@@H](C)c1ccccc1)[C@@H](C)c1ccccc1)C(=O)CN(C(=O)CNCCCCN)[C@@H](C)c1ccccc1 (H-[Nlys][Nspe][Nspe][Nlys][Nspe][Nspe][Nlys][Nspe][Nspe][Nlys][Nspe][Nspe][Nlys]-NH2) | 48.1 | > 200 | 19.5 | 5.04 | 0.4 (≈ 0.779 µg/mL) | 1.6 (≈ 3.12 µg/mL) | 10 | 
C[C@H](c1ccccc1)N(CC(N)=O)C(=O)CN(C(=O)CN(CCCCN)C(=O)CN(C(=O)CN(C(=O)CN(CCCCN)C(=O)CN(C(=O)CN(C(=O)CNCCCCN)[C@H](C)c1ccccc1)[C@@H](C)c1ccccc1)[C@H](C)c1ccccc1)[C@@H](C)c1ccccc1)[C@H](C)c1ccccc1 (stereo in doubt) | 38.7 | > 200 | 119.5 | 18.6 | 1.6 (≈ 2.19 µg/mL) | 3.1 (≈ 4.24 µg/mL) | 40 | 27
CC[C@H](C)[C@H](NC(=O)CN)C(=O)NCC(=O)N[C@@H](CCCCN)C(=O)N[C@@H](Cc1ccccc1)C(=O)N[C@@H](CC(C)C)C(=O)N[C@@H](CCCCN)C(=O)N[C@@H](CCCCN)C(=O)N[C@@H](C)C(=O)N[C@@H](CCCCN)C(=O)N[C@@H](CCCCN)C(=O)N[C@@H](Cc1ccccc1)C(=O)NCC(=O)N[C@@H](CCCCN)C(=O)N[C@@H](C)C(=O)N[C@@H](Cc1ccccc1)C(=O)N[C@H](C(=O)N[C@@H](CCCCN)C(=O)N[C@H](C(=O)N[C@@H](CC(C)C)C(=O)N[C@@H](CCCCN)C(=O)N[C@@H](CCCCN)C(N)=O)[C@@H](C)CC)C(C)C [PEXIGANAN] (H-GIGKFLKKAKKFGKAFVKILKK-NH2) | 21.5 | > 200 | 113.4 |  | 0.4 (≈ 0.991 µg/mL) | 0.8 (≈ 1.98 µg/mL) | 21.2 | 
C[C@@H](c1ccc(Cl)cc1)N(CC(N)=O)C(=O)CN(C(=O)CN(CCCCN)C(=O)CN(C(=O)CN(C(=O)CN(CCCCN)C(=O)CN(C(=O)CN(C(=O)CN(CCCCN)C(=O)CN(C(=O)CN(C(=O)CNCCCCN)[C@@H](C)c1ccc(Cl)cc1)[C@@H](C)c1ccc(Cl)cc1)[C@@H](C)c1ccc(Cl)cc1)[C@@H](C)c1ccc(Cl)cc1)[C@@H](C)c1ccc(Cl)cc1)[C@@H](C)c1ccc(Cl)cc1)[C@@H](C)c1ccc(Cl)cc1 | 100 | 10.4 | < 6.25 | 1.58 | 6.1 (≈ 12.8 µg/mL) | > 6.1 | 3 | 10
Cc1ccc([C@H](C)N(CC(N)=O)C(=O)CN(C(=O)CN(CCCCN)C(=O)CN(C(=O)CN(C(=O)CN(CCCCN)C(=O)CN(C(=O)CN(C(=O)CN(CCCCN)C(=O)CN(C(=O)CN(C(=O)CNCCCCN)[C@@H](C)c2ccc(C)cc2)[C@@H](C)c2ccc(C)cc2)[C@@H](C)c2ccc(C)cc2)[C@@H](C)c2ccc(C)cc2)[C@@H](C)c2ccc(C)cc2)[C@@H](C)c2ccc(C)cc2)[C@@H](C)c2ccc(C)cc2)cc1 | 100 | 8.3 | < 6.25 |  | 0.8 (≈ 1.55 µg/mL) | > 6.1 | 8 | 12
C[C@@H](c1ccccc1)N(CC(N)=O)C(=O)CN(C(=O)CN(CCCCN)C(=O)CN(C(=O)CN(C(=O)CN(CCCCN)C(=O)CN(C(=O)CN(C(=O)CN(CCCCN)C(=O)CN(C(=O)CN(C(=O)CNCCCCN)[C@@H](C)c1ccccc1)[C@@H](C)c1ccccc1)[C@@H](C)c1ccccc1)[C@@H](C)c1ccccc1)[C@@H](C)c1ccccc1)[C@@H](C)c1ccccc1)[C@@H](C)c1ccccc1 (H-[Nlys][Nspe][Nspe][Nlys][Nspe][Nspe][Nlys][Nspe][Nspe][Nlys][Nspe][Nspe]-NH2) | 100 | 63.4 | 9.1 | 2.21 | 0.8 (≈ 1.46 µg/mL) | 1.6 (≈ 2.91 µg/mL) | 8 | 5
C[C@@H](c1ccc(F)cc1)N(CC(N)=O)C(=O)CN(C(=O)CN(CCCCN)C(=O)CN(C(=O)CN(C(=O)CN(CCCCN)C(=O)CN(C(=O)CN(C(=O)CN(CCCCN)C(=O)CN(C(=O)CN(C(=O)CNCCCCN)[C@@H](C)c1ccc(F)cc1)[C@@H](C)c1ccc(F)cc1)[C@@H](C)c1ccc(F)cc1)[C@@H](C)c1ccc(F)cc1)[C@@H](C)c1ccc(F)cc1)[C@@H](C)c1ccc(F)cc1)[C@@H](C)c1ccc(F)cc1 | 100 | < 6.25 | < 6.25 | 2.47 | 0.4 (≈ 0.785 µg/mL) | 3.1 (≈ 6.09 µg/mL) | 9.5 | 9.5
